Reference: US10167262B2, “Herbicidal substituted 3-arylpyrazoles” (FMC CORPORATION, priority 2014, dated 2019)
Where two headings read alike, the source gives them in different places.

Columns and labels:
Type in all cases: in vivo
[1] = system: barnyardgrass (Echinochloa crus-galli); experiment: Test A pre-/postemergence greenhouse herbicide test, visual injury rating 0-100; conditions: for pest or weed control at 500 g/ha: 500 g ai/ha
How it was run: (§1)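 Test chemicals in a non-phytotoxic solvent/surfactant blend were sprayed onto loam–sand soil after planting (pre) and onto 2–10 cm seedlings at one to two leaves (post). Greenhouse hold approx. 10 days; injury then judged visually.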

[2] = system: giant foxtail (Setaria faberii); experiment: as above; conditions: for pest or weed control at 500 g/ha: 500 g ai/ha
How it was run: as §1

[3] = system: pigweed (Amaranthus retroflexus); experiment: as above; conditions: for pest or weed control at 500 g/ha: 500 g ai/ha
How it was run: as §1

[4] = system: large (Lg) crabgrass (Digitaria sanguinalis); experiment: as above; conditions: for pest or weed control at 500 g/ha: 500 g ai/ha
How it was run: as §1

[5] = system: wheat (Triticum aestivum); experiment: as above; conditions: for plant injury at 500 g/ha: 500 g ai/ha
How it was run: as §1

[6] = system: velvetleaf (Abutilon theophrasti); experiment: as above; conditions: for pest or weed control at 500 g/ha: 500 g ai/ha
How it was run: as §1

[7] = system: morningglory (Ipomoea spp.); experiment: as above; conditions: for pest or weed control at 500 g/ha: 500 g ai/ha
How it was run: as §1

corn (Zea mays) = experiment: as above; conditions: for plant injury at 500 g/ha: 500 g ai/ha
How it was run: as §1

[8] = system: large (Lg) crabgrass (Digitaria sanguinalis); experiment: Test C pre-/postemergence greenhouse test, plant response rating 0-100; conditions: Digitaria sanguinalis; for pest or weed control at 62 g/ha: 62 g ai/ha; for pest or weed control at 125 g/ha: 125 g ai/ha; for pest or weed control at 250 g/ha: 250 g ai/ha
How it was run: (§2)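 Greenhouse test. Preemergence: seed in loam:sand, sprayed with formulated chemical (solvent + surfactant). Postemergence: 1–4 leaf plants, 2–18 cm, peat-based potting medium. Hold 13–15 d; score visually, 0 (none) to 100 (complete control); dash = not tested.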

[9] = system: morningglory (Ipomoea coccinea); experiment: as above; conditions: Ipomoea; for pest or weed control at 62 g/ha: 62 g ai/ha; for pest or weed control at 125 g/ha: 125 g ai/ha; for pest or weed control at 250 g/ha: 250 g ai/ha
How it was run: as §2

[10] = system: velvetleaf (Abutilon theophrasti); experiment: as above; conditions: Abutilon theophrasti; for pest or weed control at 62 g/ha: 62 g ai/ha; for pest or weed control at 125 g/ha: 125 g ai/ha; for pest or weed control at 250 g/ha: 250 g ai/ha
How it was run: as §2

[11] = system: blackgrass (Alopecurus myosuroides); experiment: as above; conditions: Alopecurus myosuroides; for pest or weed control at 62 g/ha: 62 g ai/ha; for pest or weed control at 125 g/ha: 125 g ai/ha; for pest or weed control at 250 g/ha: 250 g ai/ha
How it was run: as §2

[12] = system: ragweed (common ragweed, Ambrosia elatior); experiment: as above; conditions: Ambrosia artemisiifolia; for pest or weed control at 62 g/ha: 62 g ai/ha; for pest or weed control at 125 g/ha: 125 g ai/ha; for pest or weed control at 250 g/ha: 250 g ai/ha
How it was run: as §2

[13] = post-emergence, Postemergence, read-out: Plant response rating (0 to 100), Crabgrass, Large
[14] = post-emergence, Postemergence, scale 0 to 100
[15] = post-emergence, Postemergence, 500 g ai/ha, scale 0 to 100
[16] = pre-emergence, Preemergence, read-out: Plant response rating, Crabgrass, Large
[17] = post-emergence, Postemergence, read-out: Plant response rating (0 to 100), Morningglory
[18] = pre-emergence, Preemergence, read-out: Plant response rating, Morningglory
[19] = post-emergence, Postemergence, read-out: Plant response rating (0 to 100), Velvetleaf
[20] = pre-emergence, Preemergence, read-out: Plant response rating, Velvetleaf
[21] = pre-emergence, Preemergence, read-out: Plant response rating, Blackgrass
[22] = post-emergence, Postemergence, read-out: Plant response rating (0 to 100), Ragweed
[23] = pre-emergence, Preemergence, read-out: Plant response rating, Ragweed

With `O=C(c1ccccc1)c1cn(CO)nc1-c1cc(Cl)cc(Cl)c1` [Compound 15, [3-(3,5-dichlorophenyl)-1-(hydroxymethyl)-1H-pyrazol-4-yl]phenylmethanone] the pest or weed control at 125 g/ha ([1]; Echinochloa crus-galli, post-emergence, 240 h, Postemergence, 125 g ai/ha, read-out: Plant response rating (0 to 100 scale), Barnyardgrass) was 0%, the pest or weed control at 500 g/ha ([1]; Echinochloa crus-galli, post-emergence, 240 h, Postemergence, read-out: Plant response rating (0 to 100 scale), Barnyardgrass) was 0% and the pest or weed control at 500 g/ha ([1]; Echinochloa crus-galli, pre-emergence, 240 h, Preemergence, read-out: Plant response rating (0 to 100 scale), Barnyardgrass) was 0%. For the same compound, the “Barnyardgrass plant response rating (0 = no effect, 100 = complete control)” value ([1]; Preemergence, 125 g ai/ha) was 0, the “Foxtail, Giant plant response rating (0 = no effect, 100 = complete control)” value ([2]; Preemergence, 125 g ai/ha) was 0 and the pest or weed control at 125 g/ha ([2]; Setaria faberi, post-emergence, 240 h, Postemergence, 125 g ai/ha, read-out: Plant response rating (0 to 100 scale), Foxtail, Giant) was 0%. For the same compound, the pest or weed control at 500 g/ha ([2]; Setaria faberi, post-emergence, 240 h, Postemergence, read-out: Plant response rating (0 to 100 scale), Foxtail, Giant) was 0%, the pest or weed control at 500 g/ha ([2]; Setaria faberi, pre-emergence, 240 h, Preemergence, read-out: Plant response rating (0 to 100 scale), Foxtail, Giant) was 0% and the pest or weed control at 125 g/ha ([3]; Amaranthus retroflexus, post-emergence, 240 h, Postemergence, 125 g ai/ha, read-out: Plant response rating (0 to 100 scale), Pigweed) was 80%. The pest or weed control at 500 g/ha ([3]; Amaranthus retroflexus, post-emergence, 240 h, Postemergence, read-out: Plant response rating (0 to 100 scale), Pigweed) was 90%, the pest or weed control at 500 g/ha ([3]; Amaranthus retroflexus, pre-emergence, 240 h, Preemergence, read-out: Plant response rating (0 to 100 scale), Pigweed) was 100% and the “Pigweed plant response rating (0 = no effect, 100 = complete control)” value ([3]; Preemergence, 125 g ai/ha) was 20. The pest or weed control at 125 g/ha ([4]; Digitaria sanguinalis, post-emergence, 240 h, Postemergence, 125 g ai/ha, read-out: Plant response rating (0 to 100 scale), Crabgrass, Large) was 0%, the pest or weed control at 500 g/ha ([4]; Digitaria sanguinalis, post-emergence, 240 h, Postemergence, read-out: Plant response rating (0 to 100 scale), Crabgrass, Large) was 0% and the pest or weed control at 500 g/ha ([4]; Digitaria sanguinalis, pre-emergence, 240 h, Preemergence, read-out: Plant response rating (0 to 100 scale), Crabgrass, Large) was 0%. The “Crabgrass, Large plant response rating (0 = no effect, 100 = complete control)” value ([4]; Preemergence, 125 g ai/ha) was 0, the “Wheat plant response rating (0 = no effect, 100 = complete control)” value ([5]; Preemergence, 125 g ai/ha) was 0 and the plant injury at 125 g/ha ([5]; Triticum aestivum, post-emergence, 240 h, Postemergence, 125 g ai/ha, read-out: Plant response rating (0 to 100 scale), Wheat) was 0%. The plant injury at 500 g/ha ([5]; Triticum aestivum, post-emergence, 240 h, Postemergence, read-out: Plant response rating (0 to 100 scale), Wheat) was 0%, the plant injury at 500 g/ha ([5]; Triticum aestivum, pre-emergence, 240 h, Preemergence, read-out: Plant response rating (0 to 100 scale), Wheat) was 0% and the pest or weed control at 125 g/ha ([6]; Abutilon theophrasti, post-emergence, 240 h, Postemergence, 125 g ai/ha, read-out: Plant response rating (0 to 100 scale), Velvetleaf) was 80%. The pest or weed control at 500 g/ha ([6]; Abutilon theophrasti, post-emergence, 240 h, Postemergence, read-out: Plant response rating (0 to 100 scale), Velvetleaf) was 90%, the pest or weed control at 500 g/ha ([6]; Abutilon theophrasti, pre-emergence, 240 h, Preemergence, read-out: Plant response rating (0 to 100 scale), Velvetleaf) was 90% and the “Velvetleaf plant response rating (0 = no effect, 100 = complete control)” value ([6]; Preemergence, 125 g ai/ha) was 40. The pest or weed control at 125 g/ha ([7]; Ipomoea, post-emergence, 240 h, Postemergence, 125 g ai/ha, read-out: Plant response rating (0 to 100 scale), Morningglory) was 0%, the pest or weed control at 500 g/ha ([7]; Ipomoea, post-emergence, 240 h, Postemergence, read-out: Plant response rating (0 to 100 scale), Morningglory) was 0% and the pest or weed control at 500 g/ha ([7]; Ipomoea, pre-emergence, 240 h, Preemergence, read-out: Plant response rating (0 to 100 scale), Morningglory) was 0%. The “Morningglory plant response rating (0 = no effect, 100 = complete control)” value ([7]; Preemergence, 125 g ai/ha) was 0, the “Corn plant response rating (0 = no effect, 100 = complete control)” value (corn (Zea mays); Preemergence, 125 g ai/ha) was 0 and the plant injury at 125 g/ha (corn (Zea mays); Zea mays, post-emergence, 240 h, Postemergence, 125 g ai/ha, read-out: Plant response rating (0 to 100 scale), Corn) was 0%. For the same compound, the plant injury at 500 g/ha (corn (Zea mays); Zea mays, post-emergence, 240 h, Postemergence, read-out: Plant response rating (0 to 100 scale), Corn) was 0%, the plant injury at 500 g/ha (corn (Zea mays); Zea mays, pre-emergence, 240 h, Preemergence, read-out: Plant response rating (0 to 100 scale), Corn) was 0% and the pest or weed control at 62 g/ha [8, 13] was 0%. It also gave a pest or weed control at 125 g/ha [8, 13] of 0%, a pest or weed control at 250 g/ha [8, 14] of 0% and a pest or weed control at 500 g/ha [8, 15] of 0%. The pest or weed control at 31 g/ha ([8]; pre-emergence, Preemergence, 31 g ai/ha, read-out: Plant response rating, Crabgrass, Large) was 0%, the pest or weed control at 62 g/ha [8, 16] was 0% and the pest or weed control at 125 g/ha [8, 16] was 0%. The pest or weed control at 250 g/ha ([8]; pre-emergence, Preemergence) was 0%, the pest or weed control at 62 g/ha [9, 17] was 0% and the pest or weed control at 125 g/ha [9, 17] was 0%. It also gave a pest or weed control at 250 g/ha [9, 14] of 10%, a pest or weed control at 500 g/ha [9, 15] of 20% and a pest or weed control at 31 g/ha ([9]; pre-emergence, Preemergence, 31 g ai/ha) of 0%. For the same compound, the pest or weed control at 62 g/ha [9, 18] was 0%, the pest or weed control at 125 g/ha [9, 18] was 0% and the pest or weed control at 250 g/ha ([9]; pre-emergence, Preemergence) was 0%. It also gave a pest or weed control at 62 g/ha [10, 19] of 80%, a pest or weed control at 125 g/ha [10, 19] of 80% and a pest or weed control at 250 g/ha [10, 14] of 90%. It also gave a pest or weed control at 500 g/ha [10, 15] of 90%, a pest or weed control at 62 g/ha [10, 20] of 60% and a pest or weed control at 125 g/ha [10, 20] of 100%. It also gave a pest or weed control at 250 g/ha ([10]; pre-emergence, Preemergence) of 100%, a pest or weed control at 62 g/ha ([11]; post-emergence, Postemergence, read-out: Plant response rating (0 to 100), Blackgrass) of 0% and a pest or weed control at 125 g/ha ([11]; post-emergence, Postemergence, scale 0 to 100, read-out: Plant response rating, Blackgrass) of 0%. The pest or weed control at 250 g/ha [11, 14] was 0%, the pest or weed control at 500 g/ha [11, 15] was 0% and the pest or weed control at 31 g/ha ([11]; pre-emergence, Preemergence, 31 g ai/ha, read-out: Plant response rating, Blackgrass) was 0%. The pest or weed control at 62 g/ha [11, 21] was 0%, the pest or weed control at 125 g/ha [11, 21] was 0% and the pest or weed control at 250 g/ha ([11]; pre-emergence, Preemergence) was 0%. The pest or weed control at 62 g/ha [12, 22] was 60%, the pest or weed control at 125 g/ha [12, 22] was 75% and the pest or weed control at 250 g/ha [12, 14] was 85%. For the same compound, the pest or weed control at 500 g/ha [12, 15] was 85%, the pest or weed control at 62 g/ha [12, 23] was 35% and the pest or weed control at 125 g/ha [12, 23] was 95%. It also gave a pest or weed control at 250 g/ha ([12]; pre-emergence, Preemergence) of 100%.
